Measured values: US8637252B2, “Methods and compositions for determining altered susceptibility of HIV-1 to anti-HIV drugs” (Monogram Biosciences, Inc., priority 2011, dated 2014)

Legend:
Type in all cases: cell-based
[1] = system: HIV-1 NL4-3 site-directed reverse transcriptase mutants; experiment: phenotypic drug resistance test, site-directed reverse transcriptase mutants in NL4-3 background (POL segment assay)
Method: Further, a site directed double mutant T3691/K103N was generated using conventional techniques and tested for resistance to an NNRTI using the methods described above.
To assess the effects of mutations at positions 348, 369, and 399, a series of site-directed mutants were constructed in an wild-type (NL4-3) background. The NNRTI susceptibility phenotypes of these mutants were then determined using the POL segment assay according to Example 2.
In particular, site-directed mutants were constructed in an NL4-3 background comprising N348I, T369I, E399D, or the combination of N3481 and T369I.
Next, a series of site-directed mutants were constructed to assess the effects of combinations of N3481, T369I, and E399D with previously recognized NNRTI resistance mutations. In particular, mutants comprising N348I, T369I, and E399D were made in combination with G190S, with K103N, and with the combination of K103R and V179D. The effects of these combinations on DLV, EFV, and NVP susceptibility were tested using the POL segment assay according to the method describe in Example 2. The results from these experiments are presented as FIG. 10.
To assess the specific effects of mutations at positions 348, 369, and 399, a series of site-directed mutants were constructed in an wild-type (NL4-3) background. The AZT susceptibility phenotype of these mutants were then determined with a POL segment assay according to Example 2.
In particular, site-directed mutants were constructed in an NL4-3 background comprising N348I, T3691, E399D, or the combination of N348I and T3691. The FC in AZT susceptibility for each mutant is shown as FIG. 13.

[2] = system: HIV-1 patient-derived test vectors with site-directed reverse transcriptase mutations; experiment: phenotypic drug resistance test, site-directed reverse transcriptase mutants in patient backgrounds
Method: In addition, using conventional technique, the T369I mutation was introduced into a resistance test vector comprising PR-RT segment derived from patient sample 62, which comprises mutations A62V, Q102K, K103N, K122E, D123N, C162S, D177E, 1178L, M184V, T200A, Q207E, T215Y, P243S, V245Q, A272P and R277K in reverse transcriptase. Among these mutations, K103N correlates with resistance to a number of NNRTIs, including NVP. This patient sample was tested for resistance to an NNRTI using the methods described above.
(§1) To further analyze the effects of N348I, T369I, and E399D on NNRTI resistance, an additional series of site directed mutants was constructed in non-wild-type backgrounds. In particular, site-directed mutants comprising the N348I, T369I, or E399D mutation were constructed in POL-containing test vectors obtained from three different patient samples. Results from these experiments are presented as FIG. 11.
as §1, with “on AZT” for “on NNRTI”, “the N3481,” for “the N348I,”, “from two” for “from three”, “samples.” for “samples. Results from these experiments are presented as FIG. 11.”

[3] = system: HIV-1 NL4-3 and IIIB site-directed integrase mutants; experiment: phenotypic INSTI susceptibility test, site-directed integrase mutants in NL4-3 or IIIB background (RHIN segment assay)
Method: To assess the effects of mutations at positions 97 and 156 of integrase, two site-directed mutants (T97A and K156N) were constructed in two different wild-type (NL4-3 and IIIB) genetic backgrounds. The INSTI susceptibility phenotypes of these mutants to diketo acid 1, diketo acid 2, and L-870,810 were then determined using the RHIN segment assay according to Example 2.
In particular, site-directed mutants were constructed in an NL4-3 or IIIB background comprising either T97A or K156N. The FC in susceptibility to diketo acid 1, diketo acid 2, and L-870,810 for each mutant is shown as FIG. 18.
Next, a series of site-directed mutants were constructed to assess the effects of combinations of T97A and K156N with previously recognized INSTI resistance mutations. In particular, mutants comprising T97A, K156N, and the combination of T97A and K156N were made in combination with three constellations of previously recognized INSI mutations (V721, F121Y, and T125K; N155S; and T66I and M1541). Each of these combinations was made in a IIIB background. The effects of these combinations on diketo acid 1, diketo acid 2, and L-870,810 susceptibility were tested with the RHIN segment assay according to the method described in Example 2.

[4] = system: HIV-1 (patient-derived RHIN segment); experiment: phenotypic drug resistance test, resistance test vectors with patient-derived RHIN segment, luciferase, 293 cells
Description: Patient-derived segment(s) corresponding to the entire pol gene, encoding HIV protease, reverse transcriptase (including RNAse H), and integrase (hereinafter “POL”), the portion of pol encoding amino acids 1-305 of reverse transcriptase (hereinafter “PR-RT”), the portion of pol encoding amino acids 319-440 of reverse transcriptase (including RNAse H), and integrase (hereinafter “RHIN”), were amplified by the reverse transcription-polymerase chain reaction method (RT-PCR) using viral RNA isolated from viral particles present in the plasma or serum of HIV-infected individuals as described below. The portion of pol encoding protease, amino acids 1-531 of reverse transcriptase (including RNase H) (hereinafter “PRRT-RH”), or the portion of pol encoding protease, reverse transcriptase (including RNAse H) and integrase (hereinafter “PRRT-RHIN”), were assembled from amplicons described above by standard recombinant DNA techniques involving a KpnI restriction site at amino acid 400 or a Pin A1 site at amino acid 315.
Virus was pelleted by centrifugation at 20,400×g for 60 min from plasma (typically, 1 ml) prepared from blood samples collected in evacuated tubes containing either EDTA, acid-citrate dextrose, or heparin as an anticoagulant. Virus particles were disrupted by resuspending the pellets in 200 [1.1 of lysis buffer (4 M guanidine thiocyanate, 0.1 M Tris HCl (pH 8.0), 0.5% sodium lauryl sarcosine, 1% dithiothreitol). RNA was extracted from viral lysates by using oligo(dT) linked to magnetic beads (Dynal, Oslo, Norway). Reverse transcription was performed with Superscript III (Invitrogen) at 50 degrees for 1 hour using primer 1.
From the resultant cDNA either POL or RHIN sequences were amplified using the Advantage High Fidelity PCR kit (BD Biosciences; Clontech). POL amplification products are made using forward Primer 3 containing an Apal site and reverse Primer 4 containing a Xho 1 site. RHIN amplification products are made using forward Primer 2 containing a P1NA1 site and reverse Primer 4 containing a Xho 1 site.
A retroviral vector designed to measure antiretroviral drug susceptibility was constructed by using an infectious molecular clone of HIV-1. The vector, referred to herein as an indicator gene viral vector (IGVV), is replication defective and contains a luciferase expression cassette inserted within a deleted region of the envelope (env) gene. The IGVV is described in U.S. Pat. No. 5,837,464 (International Publication Number WO 97/27319) which is hereby incorporated by reference in its entirety. This retroviral vector was further modified to allow insertion of either the entire pol gene (POL) or the portion of poi encoding amino acids 319-440 of reverse transcriptase, the RNase H portion of reverse transcriptase, and integrase (REIN) by engineering an Xho l restriction enzyme recognition site into vif. Prior to doing this, an Xho 1 site in nef was deleted. Resistance Test vectors (RTVs) were constructed by incorporating amplified POL or RHIN into the IGVV by using Apal and Xhol or PinAI and Xho 1 restriction sites respectively. RTVs were prepared as libraries (pools) in order to capture and preserve the pol or RHIN sequence heterogeneity of the virus in the patient. POL amplification products were digested with Apal and Xhol, purified by agarose gel electrophoresis, and ligated to ApaI- and Xhol-digested IGVV DNA. RHIN amplification products were digested with PinAI and Xho/, purified by agarose gel electrophoresis, and ligated to PinAI and Xhol-digested IGVV DNA. Ligation reactions were used to transform competent Escherichia coli (Invitrogen, Carlsbad, Calif.). An aliquot of each transformation was plated onto agar, and colony counts were used to estimate the number of patient-derived segments represented in each RTV library. RTV libraries that comprised less than 50 members are not considered representative of the patient virus. […]

SMILES	FC in susceptibility ([1]; site-directed mutant E399D in NL4-3 background)	FC in susceptibility ([1]; site-directed mutant N348I and T369I combination in NL4-3 background)	FC in susceptibility ([1]; site-directed mutant N348I in NL4-3 background)	fold change for IC50 ([1]; site-directed mutant T369I in NL4-3 background) [fold]	change in resistance on addition of mutation ([2]; E399D mutation, patient 45 or patient 50 background)	change in resistance on addition of mutation ([2]; N348I and T369I mutations, all tested patient backgrounds (patients 45, 50))	effect of mutation on resistance ([3]; T97A alone or with V72I/F121Y/T125K, N155S, or T66I/M154I, IIIB background)	effect of mutation on susceptibility ([3]; integrase K156N in NL4-3 and IIIB backgrounds)	effect of mutation on susceptibility ([3]; integrase T97A in NL4-3 and IIIB backgrounds)	FC in susceptibility relative to wild-type (NL4-3) ([4]; nine of 128 patient samples, containing integrase K156N)	FC in susceptibility relative to wild-type (NL4-3) ([4]; three of 128 patient samples, containing integrase T97A)
Cc1cn([C@H]2C[C@H](N=[N+]=[N-])[C@@H](CO)O2)c(=O)[nH]c1=O [AZT]	< 2	> 2	> 2	> 2	did not significantly increase	increased resistance	–	–	–	–	–
O=C(NCc1ccc(F)cc1)c1nc(N2CCCCS2(=O)=O)c2cccnc2c1O [L-870,810]	–	–	–	–	–	–	increased resistance	increased susceptibility	reduced susceptibility	< 0.5	increased FC
